Data reported in patent US6369032B1, “Method for treating allergies” (Ortho-McNeil Pharmaceutical, Inc., priority 2000, dated 2002).

Key:
[1] = tested on: T cells stimulated with ConA, a pan-T cell mitogen; assay: T cell proliferative responses induced by ConA (specificity control); format: cell-based, human; details: PBMC from allergic donors
Source text: (§1) Reagents. Glycerinated crude allergen extracts of house dust mites (Dermataphagoides pteronyssinus, Dermataphagoides farinae) and ragweed [Ambrosia trifida (giant), Ambrosia artemisiifolia (short)] were purchased from Hollister-Stier Laboratories (Minneapolis, Minn.). Concanavalin A (ConA) was purchased from Calbiochem (La Jolla, Calif.).
(§2) Cell culture. Human peripheral blood mononuclear cells (PBMC) were purified from blood of allergic donors using Ficoll-Hypaque gradient followed by washes with phosphate buffered saline (PBS). PBMC were cultured in triplicate or duplicate at 0.5-1.0×10^6 cells/well with titrated doses of allergen extracts, in the presence or absence of a known cathepsin S inhibitor, LHVS (morpholinurea-leucine-homo-phenylalanine-vinylsulfonephenyl) (Palmer et al. (1995), J. Med. Chem. 38:3193 and Riese et al. (1996), Immunity 4:357). Serial diluted stock solutions of LHVS were first made in 100% DMSO and then diluted 1:15 in 40% Hydroxypropynyl cyclodextrin (HPCD). Three microliters of LHVS in HPCD was added into PBMC cultures (200 μL/well). After 6 days of culture, 1 μCi/well of ^3H-thymidine (TdR) was added. Eighteen hours later, cells were harvested using a Filtermate Harvester (Packard) and counted for ^3H-TdR incorporation on Topcount (Packard). […]

[2] = tested on: cathepsin S (degradation of invariant chain Ii); assay: Monitoring cathepsin S inhibition in human blood: p10Ii fragment of invariant chain in PBMC by Western blot; format: cell-based; details: PBMC from human blood, incubation for 24 h, SDS-PAGE / Western blot
Method: The effect of in vivo administration of cathepsin S inhibitors, in a clinical trial setting, can be monitored by measuring accumulation of an intermediate degradation product of invariant chain (Ii), i.e. the p10Ii fragment, in blood of dosed subjects. After administration of a cathepsin inhibitor for a certain period of time, for example, 0.01 to 50 mg/kg/day to result in a blood concentration of preferably 1 nM-10 μM for 16-30 h, blood is drawn and white blood cells are purified, e.g. either by lysis of red blood cells or by a Ficoll-Hypaque gradient centrifugation. Whole cell lysates of WBC are then made and analyzed by either a Western blot assay or an ELISA assay. For the Western blot assay, cell lysates are first resolved on SDS-PAGE gels. After transferring to nitrocellulose membranes, Ii and its intermediate degradation products, including the p10Ii, can be detected using a mouse mAb against Ii, e.g. Pin1.1, or rabbit polyclonal antibodies or a mouse monoclonal antibody specific for the p10Ii fragment or against the entire p10Ii fragment. For ELISA assay, a pair of antibodies against Ii, including Pin1.1, and a rabbit polyclonal antibody against C-terminal of p10Ii, can be used. The same assay can also be applied to monitor the effect of cathepsin S inhibitors in vivo in animal studies, for example in monkeys, dogs, pigs, rabbits, guinea pigs, and rodents. […]

[3] = tested on: ragweed allergen-specific CD4 T cells; assay: Ex vivo human T cell proliferation assay, PBMC of allergic donors cultured with ragweed extracts (3H-thymidine incorporation); format: cell-based; details: PBMC from ragweed-allergic donors, 7 days culture, titrated doses of LHVS; two donors tested
Method: as §1
(§3) Donors. All allergic donors were prescreened for their specific allergies using RAST tests. The HLA class II haplotypes of these donors were determined using PCR.
as §2, with “After 6 days of culture, 1 μCi/well of ^3H-thymidine (TdR) was added.” left out

[4] = tested on: HDM allergen-specific CD4 T cells; assay: Ex vivo human T cell proliferation assay, PBMC of allergic donors cultured with house dust mite extracts (3H-thymidine incorporation); format: cell-based; details: PBMC from HDM-allergic donors, 7 days culture, titrated doses of LHVS; all four donors tested
Method: as §1, §3
as §2, with “After 6 days of culture, 1 μCi/well of ^3H-thymidine (TdR) was added.” left out

CC(C)C[C@H](NC(=O)N1CCOCC1)C(=O)N[C@H](/C=C/S(=O)(=O)c1ccccc1)CCc1ccccc1 [LHVS, 4-morpholinecarboxamide, N-[(1S)-3-methyl-1-[[[(1S,2E)-1-(2-phenylethyl)-3-(phenylsulfonyl)-2-propenyl]amino]carbonyl]butyl]-]
T cell proliferative responses induced by ConA [1]: not affected
p10Ii fragment (block in the degradation of Ii) [2]: the p10Ii fragment was seen
T cell proliferation induced by ragweed extracts (short and giant) [3]: strongly inhibited
T cell proliferation induced by house dust mite extracts (Der p, Der f) [4]: strongly inhibited
